pIC50, pKd: −log10 of the molar value.
Key:
[1] = target: Vascular endothelial growth factor receptor 2 (Homo sapiens, UniProt P35968); experiment: Inhibition of human KDR at 0.123 uM by Hotspot assay relative to control
[2] = target: Receptor-type tyrosine-protein kinase FLT3 (Homo sapiens, UniProt P36888, D835V/ITD); experiment: Binding affinity to human FLT3 ITD/D835V double mutant expressed in bacterial expression system by Kinomescan method
[3] = target: Receptor-type tyrosine-protein kinase FLT3 (Homo sapiens, UniProt P36888, ITD); experiment: Inhibition of human FLT3 ITD-NPOS mutant by Hotspot assay
[4] = target: T1, Vascular endothelial growth factor receptor 1 (Homo sapiens, UniProt P17948); experiment: Inhibition of human FLT1 at 0.123 uM by Hotspot assay relative to control
[5] = target: T2, Receptor-type tyrosine-protein kinase FLT3 (Homo sapiens, UniProt P36888, D835Y); experiment: Binding affinity to human FLT3 D835Y mutant (Q580 to Y969 residues) expressed in bacterial expression system by Kinomescan method
[6] = target: T3, Receptor-type tyrosine-protein kinase FLT3 (Homo sapiens, UniProt P36888); experiment: Inhibition of human FLT3 F594_R595insR mutant by Hotspot assay
MV4-11 [7] = experiment: Growth inhibition of human MV4-11 cells harboring FLT3-ITD after 72 hrs by Cell-Titer Glo assay; assay type: functional, cell-based; conditions: MV4-11, 72 h
MV4-11 [8] = experiment: Induction of apoptosis in human MV4-11 cells assessed as late apoptotic cells at 0.2 uM after 24 hrs by Annexin V-FITC/propidium iodide staining based flow cytometry (reference value: 0%); assay type: functional
[9] = Intrinsic clearance in human liver microsomes preincubated for 5 mins followed by NADPH addition by LC-MS/MS analysis; assay type: ADME, microsome; conditions: read-out: CLH
[10] = Drug uptake in human liver microsomes up to 60 mins by LC-MS/MS analysis; assay type: ADME, microsome; conditions: 1 h
[11] = target: T3, Receptor-type tyrosine-protein kinase FLT3; experiment: Inhibition of human FLT3 F594_R595insREY mutant by Hotspot assay
[12] = target: T1, Vascular endothelial growth factor receptor 1; experiment: Inhibition of human FLT1 by Hotspot assay
[13] = Half life in human liver microsomes preincubated for 5 mins followed by NADPH addition by LC-MS/MS analysis; assay type: ADME, microsome
[14] = target: T4, Vascular endothelial growth factor receptor 3 (Homo sapiens, UniProt P35916); experiment: Inhibition of human FLT4 at 0.123 uM by Hotspot assay relative to control
[15] = target: T3, Receptor-type tyrosine-protein kinase FLT3; experiment: Inhibition of human FLT3 Y591-V592 mutant by Hotspot assay
[16] = target: T2, Receptor-type tyrosine-protein kinase FLT3; experiment: Inhibition of human FLT3 D835Y mutant by Hotspot assay
Homo sapiens = species on record: Homo sapiens; experiment: Selectivity ratio of IC50 for human FLT4 to IC50 for human FLT3
[17] = target: T3, Receptor-type tyrosine-protein kinase FLT3; experiment: Inhibition of FLT3 phosphorylation at Tyr589/591 residues in human MV4-11 cells after 4 hrs by Western blot analysis; assay type: cell-based
[18] = target: Cyclin-dependent kinase 6 (Homo sapiens, UniProt Q00534); experiment: Inhibition of CDK6 (unknown origin) assessed as residual activity at 0.123 uM by Hotspot assay relative to control
[19] = target: T5, Receptor-type tyrosine-protein kinase FLT3 (Homo sapiens, UniProt P36888)
T5 sequence (P36888 whole entry): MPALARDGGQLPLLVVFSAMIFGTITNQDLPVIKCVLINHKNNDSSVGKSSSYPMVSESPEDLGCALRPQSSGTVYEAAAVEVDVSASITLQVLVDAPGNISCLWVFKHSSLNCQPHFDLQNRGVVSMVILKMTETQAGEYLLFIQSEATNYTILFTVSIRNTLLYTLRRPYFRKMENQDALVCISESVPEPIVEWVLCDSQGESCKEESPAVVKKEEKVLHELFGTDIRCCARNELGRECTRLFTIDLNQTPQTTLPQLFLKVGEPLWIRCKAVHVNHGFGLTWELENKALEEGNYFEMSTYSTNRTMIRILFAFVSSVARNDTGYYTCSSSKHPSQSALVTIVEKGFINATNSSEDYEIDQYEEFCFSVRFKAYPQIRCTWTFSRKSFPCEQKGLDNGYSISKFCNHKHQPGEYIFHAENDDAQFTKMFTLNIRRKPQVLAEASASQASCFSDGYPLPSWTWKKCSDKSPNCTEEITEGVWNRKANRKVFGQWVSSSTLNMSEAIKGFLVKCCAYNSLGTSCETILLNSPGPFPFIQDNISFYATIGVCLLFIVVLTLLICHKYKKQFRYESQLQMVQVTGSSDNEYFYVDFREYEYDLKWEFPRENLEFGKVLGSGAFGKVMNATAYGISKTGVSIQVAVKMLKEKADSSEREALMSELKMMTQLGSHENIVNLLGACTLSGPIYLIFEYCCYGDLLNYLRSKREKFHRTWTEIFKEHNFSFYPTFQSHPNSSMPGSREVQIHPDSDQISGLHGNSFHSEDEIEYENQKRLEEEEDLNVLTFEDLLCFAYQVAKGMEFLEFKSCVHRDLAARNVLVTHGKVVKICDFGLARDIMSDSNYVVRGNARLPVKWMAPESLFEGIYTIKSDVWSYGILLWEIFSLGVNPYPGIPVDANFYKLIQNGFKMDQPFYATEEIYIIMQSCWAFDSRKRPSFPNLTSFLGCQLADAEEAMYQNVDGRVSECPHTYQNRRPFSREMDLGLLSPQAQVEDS
Description: Inhibition of human FLT3 by Hotspot assay

MV4-11 [20] = experiment: Induction of apoptosis in human MV4-11 cells assessed as necrotic cells at 0.5 uM after 24 hrs by Annexin V-FITC/propidium iodide staining based flow cytometry (reference value: 0%); assay type: functional
[21] = target: T3, Receptor-type tyrosine-protein kinase FLT3; experiment: Inhibition of FLT3 in human MV4-11 cells assessed as reduction in STAT5 phosphorylation at Tyr694 residue after 4 hrs by Western blot analysis; assay type: cell-based
MV4-11 [22] = experiment: Induction of apoptosis in human MV4-11 cells assessed as early apoptotic cells at 0.5 uM after 24 hrs by Annexin V-FITC/propidium iodide staining based flow cytometry (reference value: 0%); assay type: functional
[23] = target: T4, Vascular endothelial growth factor receptor 3; experiment: Inhibition of human FLT4 by Hotspot assay
[24] = target: CDK2 (cyclin-dependent kinase 2) (Homo sapiens, UniProt P24941); experiment: Inhibition of CDK2 (unknown origin) assessed as residual activity at 0.123 uM by Hotspot assay relative to control; conditions: CDK2 enzyme (unknown origin), read-out: Activity
[25] = target: Receptor-type tyrosine-protein kinase FLT3 (Homo sapiens, UniProt P36888, F691L/ITD); experiment: Binding affinity to human FLT3 ITD/F691L double mutant expressed in bacterial expression system by Kinomescan method
[26] = target: T3, Receptor-type tyrosine-protein kinase FLT3; experiment: Inhibition of FLT3 in human MV4-11 cells assessed as reduction in ERK1/2 phosphorylation at Thr202/Tyr204 residues after 4 hrs by Western blot analysis; assay type: cell-based
MOLM-13 = experiment: Growth inhibition of human MOLM13 cells harboring FLT3-ITD after 72 hrs by Cell-Titer Glo assay; assay type: functional, cell-based; conditions: MOLM-13, 72 h
K562 = experiment: Growth inhibition of FLT3 null human K562 cells after 72 hrs by Cell-Titer Glo assay; assay type: functional, cell-based; conditions: K562, 72 h

T4 sequence (P35916 whole entry): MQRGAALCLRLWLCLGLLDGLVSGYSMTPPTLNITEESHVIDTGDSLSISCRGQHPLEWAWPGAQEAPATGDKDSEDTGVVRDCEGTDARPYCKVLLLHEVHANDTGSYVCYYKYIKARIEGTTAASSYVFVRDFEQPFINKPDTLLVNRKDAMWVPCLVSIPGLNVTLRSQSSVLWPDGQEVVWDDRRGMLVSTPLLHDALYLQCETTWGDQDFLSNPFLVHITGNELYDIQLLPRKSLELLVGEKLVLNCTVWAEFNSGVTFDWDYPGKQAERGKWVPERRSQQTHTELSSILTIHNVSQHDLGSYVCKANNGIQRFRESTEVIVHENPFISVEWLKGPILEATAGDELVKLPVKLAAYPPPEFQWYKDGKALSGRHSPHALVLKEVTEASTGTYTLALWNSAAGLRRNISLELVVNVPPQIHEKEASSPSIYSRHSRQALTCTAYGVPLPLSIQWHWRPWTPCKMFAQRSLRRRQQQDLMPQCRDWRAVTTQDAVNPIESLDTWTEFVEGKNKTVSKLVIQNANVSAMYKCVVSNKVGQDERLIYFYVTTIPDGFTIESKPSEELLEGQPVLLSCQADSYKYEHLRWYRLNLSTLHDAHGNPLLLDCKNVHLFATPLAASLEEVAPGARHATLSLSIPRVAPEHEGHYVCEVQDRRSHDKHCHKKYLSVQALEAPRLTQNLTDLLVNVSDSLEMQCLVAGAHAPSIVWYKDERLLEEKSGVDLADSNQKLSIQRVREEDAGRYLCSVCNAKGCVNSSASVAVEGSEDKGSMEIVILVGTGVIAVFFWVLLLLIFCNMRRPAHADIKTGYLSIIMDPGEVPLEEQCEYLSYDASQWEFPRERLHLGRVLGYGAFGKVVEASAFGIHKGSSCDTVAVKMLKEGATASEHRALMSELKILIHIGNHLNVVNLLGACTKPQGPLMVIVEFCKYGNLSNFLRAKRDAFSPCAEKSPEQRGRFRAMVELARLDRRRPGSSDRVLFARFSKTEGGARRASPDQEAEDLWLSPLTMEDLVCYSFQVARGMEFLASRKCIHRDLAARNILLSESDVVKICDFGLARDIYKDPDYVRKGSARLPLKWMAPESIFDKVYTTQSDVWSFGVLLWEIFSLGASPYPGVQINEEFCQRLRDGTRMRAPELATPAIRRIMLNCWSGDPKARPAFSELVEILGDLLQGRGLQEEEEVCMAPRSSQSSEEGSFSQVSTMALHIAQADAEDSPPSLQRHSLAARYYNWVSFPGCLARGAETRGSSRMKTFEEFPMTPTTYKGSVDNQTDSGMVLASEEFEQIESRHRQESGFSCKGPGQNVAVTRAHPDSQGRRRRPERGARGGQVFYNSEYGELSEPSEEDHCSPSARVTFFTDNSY
T1 sequence (P17948 whole entry, the tested form may be a part): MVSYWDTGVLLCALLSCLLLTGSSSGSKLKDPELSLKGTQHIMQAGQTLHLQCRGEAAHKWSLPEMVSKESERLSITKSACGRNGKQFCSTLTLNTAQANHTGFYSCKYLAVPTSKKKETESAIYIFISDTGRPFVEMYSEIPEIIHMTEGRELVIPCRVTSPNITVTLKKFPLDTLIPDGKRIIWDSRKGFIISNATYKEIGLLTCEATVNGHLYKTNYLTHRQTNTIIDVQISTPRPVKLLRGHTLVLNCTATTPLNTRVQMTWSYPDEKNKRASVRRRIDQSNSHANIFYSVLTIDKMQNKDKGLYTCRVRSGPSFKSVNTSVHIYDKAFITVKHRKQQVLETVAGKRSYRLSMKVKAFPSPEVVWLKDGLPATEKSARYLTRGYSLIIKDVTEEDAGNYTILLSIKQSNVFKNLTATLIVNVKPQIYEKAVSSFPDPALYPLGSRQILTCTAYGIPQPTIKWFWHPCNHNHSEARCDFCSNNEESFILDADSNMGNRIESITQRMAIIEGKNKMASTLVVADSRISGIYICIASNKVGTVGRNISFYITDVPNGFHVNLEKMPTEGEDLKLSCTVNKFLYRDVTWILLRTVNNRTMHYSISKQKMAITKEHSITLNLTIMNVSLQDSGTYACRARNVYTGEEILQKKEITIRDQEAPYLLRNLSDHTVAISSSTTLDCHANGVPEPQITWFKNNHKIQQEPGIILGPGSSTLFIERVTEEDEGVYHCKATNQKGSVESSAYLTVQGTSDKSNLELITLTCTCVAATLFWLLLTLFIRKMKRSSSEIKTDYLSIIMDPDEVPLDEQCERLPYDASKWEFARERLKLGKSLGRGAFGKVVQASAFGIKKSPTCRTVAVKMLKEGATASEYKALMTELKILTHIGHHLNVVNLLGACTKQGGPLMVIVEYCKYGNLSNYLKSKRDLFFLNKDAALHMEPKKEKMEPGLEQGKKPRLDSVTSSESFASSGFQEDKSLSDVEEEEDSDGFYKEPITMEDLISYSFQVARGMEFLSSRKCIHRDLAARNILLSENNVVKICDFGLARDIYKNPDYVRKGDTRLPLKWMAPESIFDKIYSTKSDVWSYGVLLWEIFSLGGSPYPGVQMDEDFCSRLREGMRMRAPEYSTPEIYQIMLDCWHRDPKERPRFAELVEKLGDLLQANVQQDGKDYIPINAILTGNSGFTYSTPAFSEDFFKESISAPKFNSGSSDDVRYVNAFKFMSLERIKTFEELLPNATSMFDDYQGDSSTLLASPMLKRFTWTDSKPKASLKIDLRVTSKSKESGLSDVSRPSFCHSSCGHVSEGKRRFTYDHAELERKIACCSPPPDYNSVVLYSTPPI
Sequence of Cyclin-dependent kinase 6 (Q00534 whole entry): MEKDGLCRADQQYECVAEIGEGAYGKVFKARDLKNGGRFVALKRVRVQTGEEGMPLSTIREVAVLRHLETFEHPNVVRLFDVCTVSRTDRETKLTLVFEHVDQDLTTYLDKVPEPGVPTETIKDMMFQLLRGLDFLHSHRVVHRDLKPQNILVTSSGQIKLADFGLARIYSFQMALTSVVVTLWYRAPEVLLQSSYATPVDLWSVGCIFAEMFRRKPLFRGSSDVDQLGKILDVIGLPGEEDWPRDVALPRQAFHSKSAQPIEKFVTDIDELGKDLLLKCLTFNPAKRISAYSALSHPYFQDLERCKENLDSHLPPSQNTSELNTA
Sequence of Vascular endothelial growth factor receptor 2 (P35968 whole entry): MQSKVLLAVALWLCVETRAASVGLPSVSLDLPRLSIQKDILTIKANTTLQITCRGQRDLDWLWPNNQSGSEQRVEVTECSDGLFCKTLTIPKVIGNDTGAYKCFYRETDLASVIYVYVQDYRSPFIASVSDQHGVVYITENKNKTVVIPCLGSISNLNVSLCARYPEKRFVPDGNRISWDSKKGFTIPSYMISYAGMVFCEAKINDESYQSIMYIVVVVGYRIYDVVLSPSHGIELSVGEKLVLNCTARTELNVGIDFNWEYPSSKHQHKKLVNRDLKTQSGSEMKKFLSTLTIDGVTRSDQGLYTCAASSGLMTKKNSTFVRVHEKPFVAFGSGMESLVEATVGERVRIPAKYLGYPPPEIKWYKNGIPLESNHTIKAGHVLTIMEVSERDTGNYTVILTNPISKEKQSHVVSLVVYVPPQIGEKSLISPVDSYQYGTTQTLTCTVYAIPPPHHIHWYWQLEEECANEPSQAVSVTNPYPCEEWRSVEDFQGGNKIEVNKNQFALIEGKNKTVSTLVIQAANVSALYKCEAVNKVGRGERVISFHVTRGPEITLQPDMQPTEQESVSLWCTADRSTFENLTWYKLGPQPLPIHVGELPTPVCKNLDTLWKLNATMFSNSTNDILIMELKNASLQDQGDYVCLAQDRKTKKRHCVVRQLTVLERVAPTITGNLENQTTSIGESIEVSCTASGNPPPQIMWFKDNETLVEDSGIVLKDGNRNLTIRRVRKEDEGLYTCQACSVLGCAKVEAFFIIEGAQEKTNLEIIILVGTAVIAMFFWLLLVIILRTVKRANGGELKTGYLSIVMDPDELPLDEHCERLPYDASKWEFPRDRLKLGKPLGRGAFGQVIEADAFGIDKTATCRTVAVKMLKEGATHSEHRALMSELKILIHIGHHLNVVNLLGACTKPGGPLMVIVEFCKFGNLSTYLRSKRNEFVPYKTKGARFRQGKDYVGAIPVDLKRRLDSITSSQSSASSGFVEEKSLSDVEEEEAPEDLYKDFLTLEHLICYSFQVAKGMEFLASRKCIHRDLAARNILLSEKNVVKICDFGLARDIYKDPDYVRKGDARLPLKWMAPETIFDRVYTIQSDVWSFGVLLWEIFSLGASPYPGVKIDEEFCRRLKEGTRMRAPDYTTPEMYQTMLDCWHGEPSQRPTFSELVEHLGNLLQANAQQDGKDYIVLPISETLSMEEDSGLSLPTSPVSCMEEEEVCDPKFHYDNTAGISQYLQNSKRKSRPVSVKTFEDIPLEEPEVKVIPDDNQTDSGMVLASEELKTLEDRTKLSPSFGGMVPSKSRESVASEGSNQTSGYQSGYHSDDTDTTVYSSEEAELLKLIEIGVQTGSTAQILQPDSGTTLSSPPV

Compound: Cc1nc2c(c(Nc3c[nH]nc3C(=O)Nc3ccc(N4CCNCC4)cc3)n1)CCC2
- inhibition [1]: > 50%
- pKd [2]: 8.43
- pIC50 [3]: 7.83
- inhibition [4]: > 50%
- pKd [5]: 8.27
- pIC50 [6]: 8.16
- pIC50 (MV4-11 [7]): 7.80
- Activity (MV4-11 [8]): 12.8%
- microsomal CLint [9]: 9.4 µL/min/mg
- Drug uptake [10]: 28.7%
- pIC50 [11]: 8.04
- pIC50 [12]: 6.66
- half-life [13]: 2.45 h
- inhibition [14]: > 50%
- pIC50 [15]: 7.82
- pIC50 [16]: 8.75
- Ratio IC50 (Homo sapiens): 120
- inhibition [17]: Dose-dependent effect
- Activity [18]: 91.2%
- pIC50 [19]: 9.68 to 9.72
- Activity (MV4-11 [20]): 0.83%
- inhibition [21]: Dose-dependent effect
- Activity (MV4-11 [22]): 60.4%
- pIC50 [23]: 7.64
- activity at 0.123 µM [24]: 86.3%
- pKd [25]: 7.88
- inhibition [26]: Dose-dependent effect
- pIC50 (MOLM-13): 7.43
- pIC50 (K562): 4.93

From ChEMBL document CHEMBL4152300, “Discovery of the selective and efficacious inhibitors of FLT3 mutations” (Eur J Med Chem, 2018)
